In ChEMBL document CHEMBL5052847, “Identification of compounds that inhibit stress granule formation and tau aggregation by targeting tia1” (2021):
Active and inactive are the calls of the source. No cut-off for these calls is given here.

How the values were obtained:
Homo sapiens = species on record: Homo sapiens; assay: Inhibition of recombinant TIA1 (unknown origin) multimerization measured by FRET assay
HT-22 = assay: Inhibition of TIA1 endogenously expressed in mouse HT-22 cells at 25 to 100 uM assessed as sodium arsenite-induced stress granule formation and measured by FRET assay relative to control; assay type: cell-based; settings: dose 25-100 µM

inhibition (Homo sapiens) | Structure (SMILES) | inhibition (HT-22)
Active | CN(C)S(=O)(=O)c1cccc(-n2sc3ccccc3c2=O)c1 | Active
Active | O=c1c2ccccc2sn1-c1ccc(Cl)c(S(=O)(=O)N2CCOCC2)c1 | Active
Active | O=c1c2ccccc2sn1-c1cccc(S(=O)(=O)N2CCCCCC2)c1 | Active

Continued, compound first:

Structure (SMILES) | inhibition (Homo sapiens) | inhibition (HT-22)
O=C(O)c1ccccc1NS(=O)(=O)c1cccc(-n2sc3ccccc3c2=O)c1 | Active | Active
O=c1c2ccccc2sn1-c1ccc(Cl)cc1 | Active | Active
O=C1c2ccccc2S(=O)(=O)N1c1ccccc1F | Active | Active
O=c1c2ccccc2sn1-c1cccc(S(=O)(=O)Nc2ccc(Cl)cc2)c1 | Active | Active
CCN(CC)S(=O)(=O)c1cccc(-n2sc3ccccc3c2=O)c1 | Active | Active
Cc1ccc(C)c(-n2sc3cc(F)ccc3c2=O)c1 | Active | Active
Cc1cccc(-n2sc3ccccc3c2=O)c1 | Active | Active
O=c1c2ccccc2sn1-c1nccs1 | Active | Active
